The assay deals with Monocotyledonous and dicotyledonous weed seeds and main crop seeds. The assay can be described thus: Post-emergence test experiment, other weeds and crops (Table 4, 1000 g a.i./ha). The assay is classed as in vivo. As to conditions: 3 weeks in greenhouse, fresh weight inhibition. As to the method:
The above described growth inhibition rate is fresh weight inhibition rate.
Post-emergence test experiment: Monocotyledonous and dicotyledonous weed seeds and main crop seeds (i. e. wheat, corn, rice, soybean, cotton, oilseed, millet and sorghum.) were put into a plastic pot loaded with soil. Then covered with 0.5-2 cm soil, the seeds were allowed to grow in good greenhouse environment. The test plants were treated at 2-3 leaf stage 2 weeks after sowing. The test compounds of the invention were dissolved with acetone respectively, then added with tween-80, and using 1.5 liters per hectare of an emulsible concentrate of methyl oleate as a synergist, and diluted by certain amount of water to certain concentration. The solution was sprayed to the plants with a sprayer.

Experimental findings from patent US12304890B2, “R-type pyridyloxycarboxylic acid, salt and ester derivative thereof, and preparation method therefor, and herbicidal composition and application thereof” (Qingdao Kingagroot Chemical Compound Co., Ltd., priority 2018, dated 2025) are described below.

With `COC(=O)C(OC)Oc1nc(F)c(Cl)c(N)c1Cl` (stereo not drawn) [Compound 2-58], the “Activity level (growth inhibition rate), Abutilon theophrasti Medic.” value is 5 (Level 5: the growth inhibition rate is greater than 85%); the “Activity level (growth inhibition rate), Galium aparine” value is recorded as 5 (Level 5: the growth inhibition rate is greater than 85%); the “Activity level (growth inhibition rate), Monochoria Vaginalis” value was 5 (Level 5: the growth inhibition rate is greater than 85%).

Consider `C=CCNCC=C.CCC(Oc1nc(F)c(Cl)c(N)c1Cl)C(=O)S` (stereo not drawn) [Compound 2-12], for which the “Activity level (growth inhibition rate), Abutilon theophrasti Medic.” value is reported as 5 (Level 5: the growth inhibition rate is greater than 85%); the “Activity level (growth inhibition rate), Galium aparine” value was 5 (Level 5: the growth inhibition rate is greater than 85%); the “Activity level (growth inhibition rate), Monochoria Vaginalis” value is 5 (Level 5: the growth inhibition rate is greater than 85%).

Take `COC(=O)[C@H](Oc1nc(F)c(Cl)c(N)c1Cl)c1cccc(Cl)c1` [Compound 2-64]: the “Activity level (growth inhibition rate), Abutilon theophrasti Medic.” value was 5 (Level 5: the growth inhibition rate is greater than 85%); the “Activity level (growth inhibition rate), Galium aparine” value is 5 (Level 5: the growth inhibition rate is greater than 85%); the “Activity level (growth inhibition rate), Monochoria Vaginalis” value was 5 (Level 5: the growth inhibition rate is greater than 85%).

In the case of `COC(=O)C(CC#N)Oc1nc(F)c(Cl)c(N)c1Cl` (stereo not drawn) [Compound 2-60], the “Activity level (growth inhibition rate), Abutilon theophrasti Medic.” value is 5 (Level 5: the growth inhibition rate is greater than 85%); the “Activity level (growth inhibition rate), Galium aparine” value was 5 (Level 5: the growth inhibition rate is greater than 85%); the “Activity level (growth inhibition rate), Monochoria Vaginalis” value is listed as 5 (Level 5: the growth inhibition rate is greater than 85%).

Turning to `CCCCOCCN` [Compound 2-21, 2-butoxyethylamine], the “Activity level (growth inhibition rate), Abutilon theophrasti Medic.” value is listed as 5 (Level 5: the growth inhibition rate is greater than 85%); the “Activity level (growth inhibition rate), Galium aparine” value is 5 (Level 5: the growth inhibition rate is greater than 85%); the “Activity level (growth inhibition rate), Monochoria Vaginalis” value is recorded as 5 (Level 5: the growth inhibition rate is greater than 85%).

Consider `C[N+](C)(C)CCO.Nc1c(Cl)c(F)nc(O[C@@H](C(=O)[O-])c2ccccc2)c1Cl` [Compound 2-6], for which the “Activity level (growth inhibition rate), Abutilon theophrasti Medic.” value is reported as 5 (Level 5: the growth inhibition rate is greater than 85%); the “Activity level (growth inhibition rate), Galium aparine” value was 5 (Level 5: the growth inhibition rate is greater than 85%); the “Activity level (growth inhibition rate), Monochoria Vaginalis” value was 5 (Level 5: the growth inhibition rate is greater than 85%).

Turning to `NCc1ccccc1` [Compound 2-9, benzylamine], the “Activity level (growth inhibition rate), Abutilon theophrasti Medic.” value is recorded as 5 (Level 5: the growth inhibition rate is greater than 85%); the “Activity level (growth inhibition rate), Galium aparine” value is recorded as 5 (Level 5: the growth inhibition rate is greater than 85%); the “Activity level (growth inhibition rate), Monochoria Vaginalis” value is 5 (Level 5: the growth inhibition rate is greater than 85%).

Turning to `COC(=O)C(CC(F)(F)F)Oc1nc(F)c(Cl)c(N)c1Cl` (stereo not drawn) [Compound 2-40], the “Activity level (growth inhibition rate), Abutilon theophrasti Medic.” value is on record as 5 (Level 5: the growth inhibition rate is greater than 85%); the “Activity level (growth inhibition rate), Galium aparine” value is listed as 5 (Level 5: the growth inhibition rate is greater than 85%); the “Activity level (growth inhibition rate), Monochoria Vaginalis” value is 5 (Level 5: the growth inhibition rate is greater than 85%).

Consider `CN(C)CCCN.Nc1c(Cl)c(F)nc(OC(C(=O)O)c2ccccc2)c1Cl` (stereo not drawn) [Compound 2-16], for which the “Activity level (growth inhibition rate), Abutilon theophrasti Medic.” value is listed as 5 (Level 5: the growth inhibition rate is greater than 85%); the “Activity level (growth inhibition rate), Galium aparine” value is on record as 5 (Level 5: the growth inhibition rate is greater than 85%); the “Activity level (growth inhibition rate), Monochoria Vaginalis” value is 5 (Level 5: the growth inhibition rate is greater than 85%).

In the case of `COC(=O)C(Oc1nc(F)c(Cl)c(N)c1Cl)C(=O)OC` [Compound 2-47], the “Activity level (growth inhibition rate), Abutilon theophrasti Medic.” value was 5 (Level 5: the growth inhibition rate is greater than 85%); the “Activity level (growth inhibition rate), Galium aparine” value is recorded as 5 (Level 5: the growth inhibition rate is greater than 85%); the “Activity level (growth inhibition rate), Monochoria Vaginalis” value is 5 (Level 5: the growth inhibition rate is greater than 85%).

On to `NC1CCCCCCCCCCC1` [Compound 2-13, cyclododecylamine], for which the “Activity level (growth inhibition rate), Abutilon theophrasti Medic.” value is 5 (Level 5: the growth inhibition rate is greater than 85%); the “Activity level (growth inhibition rate), Galium aparine” value is recorded as 5 (Level 5: the growth inhibition rate is greater than 85%); the “Activity level (growth inhibition rate), Monochoria Vaginalis” value is on record as 5 (Level 5: the growth inhibition rate is greater than 85%).

On to `COC(=O)[C@@H](Oc1nc(F)c(Cl)c(N)c1Cl)c1cccs1` [Compound 2-65], for which the “Activity level (growth inhibition rate), Abutilon theophrasti Medic.” value was 5 (Level 5: the growth inhibition rate is greater than 85%); the “Activity level (growth inhibition rate), Galium aparine” value is recorded as 5 (Level 5: the growth inhibition rate is greater than 85%); the “Activity level (growth inhibition rate), Monochoria Vaginalis” value was 5 (Level 5: the growth inhibition rate is greater than 85%).

For `C=C[C@@H](Oc1nc(F)c(Cl)c(N)c1Cl)C(=O)OC` [Compound 2-45], the “Activity level (growth inhibition rate), Abutilon theophrasti Medic.” value is 5 (Level 5: the growth inhibition rate is greater than 85%); the “Activity level (growth inhibition rate), Galium aparine” value is recorded as 5 (Level 5: the growth inhibition rate is greater than 85%); the “Activity level (growth inhibition rate), Monochoria Vaginalis” value is listed as 5 (Level 5: the growth inhibition rate is greater than 85%).

Consider `COC(=O)C(CCCl)Oc1nc(F)c(Cl)c(N)c1Cl` (stereo not drawn) [Compound 2-42], for which the “Activity level (growth inhibition rate), Abutilon theophrasti Medic.” value is recorded as 5 (Level 5: the growth inhibition rate is greater than 85%); the “Activity level (growth inhibition rate), Galium aparine” value is 5 (Level 5: the growth inhibition rate is greater than 85%); the “Activity level (growth inhibition rate), Monochoria Vaginalis” value was 5 (Level 5: the growth inhibition rate is greater than 85%).

Turning to `COC(=O)C(C=O)Oc1nc(F)c(Cl)c(N)c1Cl` (stereo not drawn) [Compound 2-48], the “Activity level (growth inhibition rate), Abutilon theophrasti Medic.” value is listed as 5 (Level 5: the growth inhibition rate is greater than 85%); the “Activity level (growth inhibition rate), Galium aparine” value was 5 (Level 5: the growth inhibition rate is greater than 85%); the “Activity level (growth inhibition rate), Monochoria Vaginalis” value is on record as 5 (Level 5: the growth inhibition rate is greater than 85%).

Turning to `CCOC(=O)C(Oc1nc(F)c(Cl)c(N)c1Cl)C1CC1` (stereo not drawn) [Compound 2-383], the “Activity level (growth inhibition rate), Abutilon theophrasti Medic.” value is reported as 5 (Level 5: the growth inhibition rate is greater than 85%); the “Activity level (growth inhibition rate), Galium aparine” value is 5 (Level 5: the growth inhibition rate is greater than 85%); the “Activity level (growth inhibition rate), Monochoria Vaginalis” value is given as 5 (Level 5: the growth inhibition rate is greater than 85%).

As for `COC(=O)[C@@H](Oc1nc(F)c(Cl)c(N)c1Cl)c1nc(Cl)cs1` [Compound 2-67], the “Activity level (growth inhibition rate), Abutilon theophrasti Medic.” value was 5 (Level 5: the growth inhibition rate is greater than 85%); the “Activity level (growth inhibition rate), Galium aparine” value is 5 (Level 5: the growth inhibition rate is greater than 85%); the “Activity level (growth inhibition rate), Monochoria Vaginalis” value is on record as 5 (Level 5: the growth inhibition rate is greater than 85%).

For the compound `CN(CCCN)CCCN` [Compound 2-19, N,N-bis[aminopropyl]methylamine], the “Activity level (growth inhibition rate), Abutilon theophrasti Medic.” value is 5 (Level 5: the growth inhibition rate is greater than 85%); the “Activity level (growth inhibition rate), Galium aparine” value was 5 (Level 5: the growth inhibition rate is greater than 85%); the “Activity level (growth inhibition rate), Monochoria Vaginalis” value was 5 (Level 5: the growth inhibition rate is greater than 85%).

For the compound `C#CC(Oc1nc(F)c(Cl)c(N)c1Cl)C(=O)OC` (stereo not drawn) [Compound 2-46], the “Activity level (growth inhibition rate), Abutilon theophrasti Medic.” value is recorded as 5 (Level 5: the growth inhibition rate is greater than 85%); the “Activity level (growth inhibition rate), Galium aparine” value is 5 (Level 5: the growth inhibition rate is greater than 85%); the “Activity level (growth inhibition rate), Monochoria Vaginalis” value is given as 5 (Level 5: the growth inhibition rate is greater than 85%).

Regarding `COC(=O)C(Oc1nc(F)c(Cl)c(N)c1Cl)C(C)C` (stereo not drawn) [Compound 2-35], the “Activity level (growth inhibition rate), Abutilon theophrasti Medic.” value is recorded as 5 (Level 5: the growth inhibition rate is greater than 85%); the “Activity level (growth inhibition rate), Galium aparine” value is given as 5 (Level 5: the growth inhibition rate is greater than 85%); the “Activity level (growth inhibition rate), Monochoria Vaginalis” value is 5 (Level 5: the growth inhibition rate is greater than 85%).

Consider `CSC(=O)C(Oc1nc(F)c(Cl)c(N)c1Cl)C(C)C` (stereo not drawn) [Compound 2-36], for which the “Activity level (growth inhibition rate), Abutilon theophrasti Medic.” value is 5 (Level 5: the growth inhibition rate is greater than 85%); the “Activity level (growth inhibition rate), Galium aparine” value is listed as 5 (Level 5: the growth inhibition rate is greater than 85%); the “Activity level (growth inhibition rate), Monochoria Vaginalis” value is given as 5 (Level 5: the growth inhibition rate is greater than 85%).

As for `COC(=O)C(Oc1nc(F)c(Cl)c(N)c1Cl)C(F)(F)F` (stereo not drawn) [Compound 2-39], the “Activity level (growth inhibition rate), Abutilon theophrasti Medic.” value is recorded as 5 (Level 5: the growth inhibition rate is greater than 85%); the “Activity level (growth inhibition rate), Galium aparine” value is listed as 5 (Level 5: the growth inhibition rate is greater than 85%); the “Activity level (growth inhibition rate), Monochoria Vaginalis” value is 5 (Level 5: the growth inhibition rate is greater than 85%).

Regarding `CCC(Oc1nc(F)c(Cl)c(N)c1Cl)C(=O)S.NCCCN1CCOCC1` (stereo not drawn) [Compound 2-25], the “Activity level (growth inhibition rate), Abutilon theophrasti Medic.” value is recorded as 5 (Level 5: the growth inhibition rate is greater than 85%); the “Activity level (growth inhibition rate), Galium aparine” value was 5 (Level 5: the growth inhibition rate is greater than 85%); the “Activity level (growth inhibition rate), Monochoria Vaginalis” value was 5 (Level 5: the growth inhibition rate is greater than 85%).
